Tests used:
CD-1 mice [1] = experiment: Subcutaneous Pentylenetetrazole (PTZ) Seizure Procedure; format: in vivo; details: Mus musculus; PTZ 85 mg/kg s.c., compound p.o. 30 minutes prior to PTZ injection, linear regression; read-out: ED50 (dose at which 50% of the mice were protected from tonic seizures)
Experimental: (§1) Adult, male, CD-1 mice (22-25 grams) were obtained from Charles River Laboratories (Portage, Mich.) and housed at Abbott Laboratories (Abbott Park) under standard lighting conditions of 12 hours on/12 hours off, with lights on at 6 a.m. Food and water were provided ad libitum and mice weighed 25-35 grams at the time of testing.
(§2) Compounds were prepared for oral administration by suspending them in a vehicle of 100 μL Tween® 80 per mL hydroxypropyl methylcellulose (2 mg/mL, Abbott Laboratories). Compound solutions were administered at a volume of 10 mL/kg, p.o.
The method used was similar to that of E. A. Swinyard, General principles: Experimental selection, quantification and evaluation of anti-convulsants, Anti-epileptic Drugs, Third Edition, R. Levey, et al., Editors. 1989, Raven Press Ltd: New York. During the experiment the mice were housed individually in clear polycarbonate cages for observation. […] Seizures were induced by the subcutaneous injection of pentylenetetrazole (PTZ, 85 mg/kg) just below the nape of the neck. […] A total of 20 mice were used in each group. The ED50for the compounds were calculated using linear regression and represent the dose at which 50% of the mice were protected from tonic seizures.

CD-1 mice [2] = experiment: Maximal Electroshock Procedure; format: in vivo; details: Mus musculus, po, p.o. 30 minutes prior to electrical stimulation, PROBIT analysis, read-out: ED50 (dose at which 50% of the mice were protected from tonic seizures)
Experimental: as §1, §2
The method used was similar to that of E. A. Swinyard, General principles: Experimental selection, quantification and evaluation of anti-convulsants, Anti-epileptic Drugs, Third Edition, R. Levey, et al., Editors. 1989, Raven Press Ltd: New York. Mice were pretreated orally with compounds of the present invention 30 minutes prior to electrical stimulation. Electrical stimulation consisted of pulsed electrical current (50 mA, 0.4 second duration, pulse width 0.5 msec, 60 pulses/sec) applied via corneal electrodes to induce seizure. The stimulation was delivered with an ECT Unit (Ugo Basile #7801). […] The percent protection from tonic seizures was calculated by dividing the number of protected mice by the total number in the group. […]

## CCCC(CCC)C(=O)O [Valproate]
CD-1 mice [1]
  ED50: 1800 µmol/kg
CD-1 mice [2]
  ED50: 1200 µmol/kg
